Experimental data taken from PubChem BioAssay AID1963840 (Molecular Pharmacology Branch, DTP, NCI, 2024).

Tested on: 695427-040-R-J1-PDC complex spheroid viability
Experiment: Anticancer human tumor 695427-040-R-J1-PDC patient-derived colon adenocarcinoma cell line growth inhibition [POLQ]
Conditions: for IC50: curve of first compound; for viability, T/C: stronger effect = lower value
Outline: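 Patient-derived tumour cells were co-cultured with HUVEC and mesenchymal stem cells as multicellular spheroids at 37 °C. They were treated with POLQ inhibitors (novobiocin, ART-558, RP6685) alone or combined with other agents. Top concentrations were at or near clinical Cmax (otherwise 10 microM; SN-38 at 1 microM), decreasing in half-log steps.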

[1] = second compound 0.0316 µM, first compound 0.0316 µM
[2] = second compound 0.0316 µM, first compound 0.1 µM
[3] = second compound 0.0316 µM, first compound 0.316 µM
[4] = second compound 0.0316 µM, first compound 1 µM
[5] = second compound 0.0316 µM, first compound 3.16 µM
[6] = second compound 0.0316 µM, first compound 10 µM
[7] = second compound 0.1 µM, first compound 0.0316 µM
[8] = second compound 0.1 µM, first compound 0.1 µM
[9] = second compound 0.1 µM, first compound 0.316 µM
[10] = second compound 0.1 µM, first compound 1 µM
[11] = second compound 0.1 µM, first compound 3.16 µM
[12] = second compound 0.1 µM, first compound 10 µM
[13] = second compound 0.316 µM, first compound 0.0316 µM
[14] = second compound 0.316 µM, first compound 0.1 µM
[15] = second compound 0.316 µM, first compound 0.316 µM
[16] = second compound 0.316 µM, first compound 1 µM
[17] = second compound 0.316 µM, first compound 3.16 µM
[18] = second compound 0.316 µM, first compound 10 µM
[19] = second compound 1 µM, first compound 0.0316 µM
[20] = second compound 1 µM, first compound 0.1 µM
[21] = second compound 1 µM, first compound 0.316 µM
[22] = second compound 1 µM, first compound 1 µM
[23] = second compound 1 µM, first compound 3.16 µM
[24] = second compound 1 µM, first compound 10 µM
[25] = second compound 3.16 µM, first compound 0.0316 µM
[26] = second compound 3.16 µM, first compound 0.1 µM
[27] = second compound 3.16 µM, first compound 0.316 µM
[28] = second compound 3.16 µM, first compound 1 µM
[29] = second compound 3.16 µM, first compound 3.16 µM
[30] = second compound 3.16 µM, first compound 10 µM
[31] = second compound 10 µM, first compound 0.0316 µM
[32] = second compound 10 µM, first compound 0.1 µM
[33] = second compound 10 µM, first compound 0.316 µM
[34] = second compound 10 µM, first compound 1 µM
[35] = second compound 10 µM, first compound 3.16 µM
[36] = second compound 10 µM, first compound 10 µM
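Note: spheroids exposed to compounds for seven days.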
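Throughout, for viability, T/C: 100% = DMSO vehicle control viability.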

CCc1cc2c(N3CCc4c(cc(Cn5ccnc5)cc4-c4cn(C)nc4C(F)(F)F)C3=O)ccnc2c(OC)n1 + Nc1ccc(C#CCN(C(=O)Cc2ncc(C(F)(F)F)cc2C(F)(F)F)c2ccc(F)cc2)nn1
IC50 (second compound 0.0316 µM): > 10 µM | IC50 (second compound 0.1 µM): > 10 µM | IC50 (second compound 0.316 µM): > 10 µM | IC50 (second compound 1 µM): > 10 µM | IC50 (second compound 3.16 µM): > 10 µM | IC50 (second compound 10 µM): > 10 µM | viability, T/C [1]: 102% | viability, T/C [2]: 106% | viability, T/C [3]: 94.6% | viability, T/C [4]: 95.8% | viability, T/C [5]: 105% | viability, T/C [6]: 96% | viability, T/C [7]: 115% | viability, T/C [8]: 112% | viability, T/C [9]: 101% | viability, T/C [10]: 100% | viability, T/C [11]: 105% | viability, T/C [12]: 102% | viability, T/C [13]: 118% | viability, T/C [14]: 115% | viability, T/C [15]: 93% | viability, T/C [16]: 104% | viability, T/C [17]: 103% | viability, T/C [18]: 87.6% | viability, T/C [19]: 116% | viability, T/C [20]: 95.1% | viability, T/C [21]: 102% | viability, T/C [22]: 104% | viability, T/C [23]: 114% | viability, T/C [24]: 84.5% | viability, T/C [25]: 116% | viability, T/C [26]: 104% | viability, T/C [27]: 93.6% | viability, T/C [28]: 104% | viability, T/C [29]: 103% | viability, T/C [30]: 90% | viability, T/C [31]: 101% | viability, T/C [32]: 93.2% | viability, T/C [33]: 101% | viability, T/C [34]: 110% | viability, T/C [35]: 97.7% | viability, T/C [36]: 96.7%

COc1cc2cc(C(=O)CCC(=O)O)sc2cc1OC + Nc1ccc(C#CCN(C(=O)Cc2ncc(C(F)(F)F)cc2C(F)(F)F)c2ccc(F)cc2)nn1
IC50 (second compound 0.0316 µM): > 10 µM | IC50 (second compound 0.1 µM): > 10 µM | IC50 (second compound 0.316 µM): > 10 µM | IC50 (second compound 1 µM): > 10 µM | IC50 (second compound 3.16 µM): > 10 µM | IC50 (second compound 10 µM): > 10 µM | viability, T/C [1]: 111% | viability, T/C [2]: 92% | viability, T/C [3]: 103% | viability, T/C [4]: 115% | viability, T/C [5]: 105% | viability, T/C [6]: 92.1% | viability, T/C [7]: 109% | viability, T/C [8]: 118% | viability, T/C [9]: 103% | viability, T/C [10]: 102% | viability, T/C [11]: 115% | viability, T/C [12]: 96.6% | viability, T/C [13]: 111% | viability, T/C [14]: 109% | viability, T/C [15]: 94.1% | viability, T/C [16]: 109% | viability, T/C [17]: 105% | viability, T/C [18]: 98.9% | viability, T/C [19]: 109% | viability, T/C [20]: 100% | viability, T/C [21]: 104% | viability, T/C [22]: 108% | viability, T/C [23]: 120% | viability, T/C [24]: 89.7% | viability, T/C [25]: 111% | viability, T/C [26]: 101% | viability, T/C [27]: 102% | viability, T/C [28]: 99.1% | viability, T/C [29]: 106% | viability, T/C [30]: 86.4% | viability, T/C [31]: 105% | viability, T/C [32]: 105% | viability, T/C [33]: 98.7% | viability, T/C [34]: 87.4% | viability, T/C [35]: 102% | viability, T/C [36]: 102%

O=C(Nc1ccc(O)c(NS(=O)(=O)c2ccc(F)cc2)c1)c1ccc(-c2ccccc2)cc1 + Nc1ccc(C#CCN(C(=O)Cc2ncc(C(F)(F)F)cc2C(F)(F)F)c2ccc(F)cc2)nn1
IC50 (second compound 0.0316 µM): > 10 µM | IC50 (second compound 0.1 µM): > 10 µM | IC50 (second compound 0.316 µM): > 10 µM | IC50 (second compound 1 µM): > 10 µM | IC50 (second compound 3.16 µM): > 10 µM | IC50 (second compound 10 µM): > 10 µM | viability, T/C [1]: 108% | viability, T/C [2]: 107% | viability, T/C [3]: 105% | viability, T/C [4]: 107% | viability, T/C [5]: 109% | viability, T/C [6]: 91.9% | viability, T/C [7]: 112% | viability, T/C [8]: 105% | viability, T/C [9]: 92.8% | viability, T/C [10]: 104% | viability, T/C [11]: 104% | viability, T/C [12]: 97.3% | viability, T/C [13]: 106% | viability, T/C [14]: 106% | viability, T/C [15]: 99.8% | viability, T/C [16]: 101% | viability, T/C [17]: 108% | viability, T/C [18]: 87.4% | viability, T/C [19]: 112% | viability, T/C [20]: 97.4% | viability, T/C [21]: 99.1% | viability, T/C [22]: 105% | viability, T/C [23]: 119% | viability, T/C [24]: 80.2% | viability, T/C [25]: 108% | viability, T/C [26]: 104% | viability, T/C [27]: 99.2% | viability, T/C [28]: 109% | viability, T/C [29]: 112% | viability, T/C [30]: 112% | viability, T/C [31]: 99% | viability, T/C [32]: 94% | viability, T/C [33]: 104% | viability, T/C [34]: 94.7% | viability, T/C [35]: 93.5% | viability, T/C [36]: 88.1%
